5 compounds from US20240270762A1, “PENICILLIN-BINDING PROTEIN INHIBITORS” (priority 2021, published 2024) can be followed below.

Assay [1] deals with T1, PBP3 from Pseudomonas aeruginosa (PAO1) (Pseudomonas aeruginosa, UniProt G3XD46).
T1 construct: made in house
Kind of assay: Bocillin-FL fluorescence polarization competition binding, P. aeruginosa PBP3. The conditions noted are these: Binding affinity to P. aeruginosa PBP3; fluorescence polarization competition binding assay using Bocillin-FL; read-out: P. aeruginosa PBP3 Potency. An excerpt: To determine the ability of boronic acid-based test PBP inhibitors to bind Penicillin Binding Proteins (PBPs), Bocillin-FL (fluorescently-labeled penicillin V; ThermoFisher Scientific) was used in a fluorescence polarization (FP) competition binding assay to assess inhibitor binding to PBP3 from Escherichia coli (K-12), PBP3 from Pseudomonas aeruginosa (PAO1), PBP1a and PBP3 from Acinetobacter baumannii (ATCC 19606), and PBP2 from Neisseria gonorrhoeae (FA19). PBPs were cloned and purified as described previously (E. coli PBP3, King, D. T, et al., ACS Infectious Diseases 2015, 1, 175-184; P. aeruginosa PBP3, Han et. al., PNAS 2010, 107 (51), 22002-22007; A. baumannii PBPs, Penwell et. al., Antimicrob. Agents Chemother. 2015, 59 (3), 1680-1689; N. gonorrhoeae PBP2, Singh et. al., J. Biol. Chem. 2019, 294 (38), 14020-14032). To establish assay conditions for competition binding, enzyme titration/saturation binding experiments were initially performed. Bocillin-FL was prepared at 0.2 μM in a buffer comprised of 50 mM Hepes (pH 8.0), 300 mM NaCl and 10% (v/v) glycerol for reactions with E. coli, P. aeruginosa and N. gonorrhoeae PBPs, and 25 mM Tris (pH 8.0), 200 mM NaCl, 10% (v/v) glycerol and 0.005% (v/v) Tween 20 for reactions with A. baumannii PBPs. Saturation binding was performed by mixing 40 μl of PBP solutions ranging in concentrations from 0-24 μM with 40 μl of the 0.2 μM Bocillin-FL solution, in individual wells of a black 384-well microplate. FP was measured immediately upon mixing (Excitation, 490 nm; Emission, 520 nm; g-factor, 0.96), using a Cytation3 (BioTek) microplate reader and measured continuously for up to 120 minutes. The FP response stabilized after 15 minutes for P. aeruginosa and A. baumannii PBP3, 30 minutes for E. coli PBP3 and A. baumannii PBP1a, and less than 1 minute for N. gonorrhoeae PBP2. […] The competition binding assay (80 μl final volume) was validated using beta-lactams and PBPs at final concentrations of: 1.5 μM for E. coli PBP3; 0.75 μM for P. aeruginosa PBP3; 1 μM for A. baumannii PBP1a; 0.2 μM for A. baumannii PBP3; and 0.25 μM for N. gonorrhoeae PBP2. Bocillin-FL was at 0.1 μM (0.05 μM with A. baumannii PBP1a) and beta-lactam concentrations ranged from 0-1,000 μM. E. coli PBP3 was incubated with increasing concentrations of ampicillin in a black 384-well microplate (Corning) for 30 minutes. P. aeruginosa PBP3 was incubated for 15 minutes with aztreonam, whereas A. baumannii PBP1a and PBP3 were incubated for 15 minutes with meropenem, and then Bocillin-FL was added followed immediately by the FP measurement for up to 60 minutes. […] The beta-lactam potency was reported as the concentration of beta-lactam required to reduce the amount of PBP bound-Bocillin-FL by 50% (EC50). […] The EC50 of aztreonam was determined to be <0.5 μM for P. aeruginosa PBP3. […] Binding assays for boronic acid PBP inhibitors were performed in an identical fashion for the respective PBPs.

For assay [2], the target named is T2, A. baumannii PBP1a (Acinetobacter baumannii, UniProt A0ABX6CK30).
T2 sequence (A0ABX6CK30 1-851): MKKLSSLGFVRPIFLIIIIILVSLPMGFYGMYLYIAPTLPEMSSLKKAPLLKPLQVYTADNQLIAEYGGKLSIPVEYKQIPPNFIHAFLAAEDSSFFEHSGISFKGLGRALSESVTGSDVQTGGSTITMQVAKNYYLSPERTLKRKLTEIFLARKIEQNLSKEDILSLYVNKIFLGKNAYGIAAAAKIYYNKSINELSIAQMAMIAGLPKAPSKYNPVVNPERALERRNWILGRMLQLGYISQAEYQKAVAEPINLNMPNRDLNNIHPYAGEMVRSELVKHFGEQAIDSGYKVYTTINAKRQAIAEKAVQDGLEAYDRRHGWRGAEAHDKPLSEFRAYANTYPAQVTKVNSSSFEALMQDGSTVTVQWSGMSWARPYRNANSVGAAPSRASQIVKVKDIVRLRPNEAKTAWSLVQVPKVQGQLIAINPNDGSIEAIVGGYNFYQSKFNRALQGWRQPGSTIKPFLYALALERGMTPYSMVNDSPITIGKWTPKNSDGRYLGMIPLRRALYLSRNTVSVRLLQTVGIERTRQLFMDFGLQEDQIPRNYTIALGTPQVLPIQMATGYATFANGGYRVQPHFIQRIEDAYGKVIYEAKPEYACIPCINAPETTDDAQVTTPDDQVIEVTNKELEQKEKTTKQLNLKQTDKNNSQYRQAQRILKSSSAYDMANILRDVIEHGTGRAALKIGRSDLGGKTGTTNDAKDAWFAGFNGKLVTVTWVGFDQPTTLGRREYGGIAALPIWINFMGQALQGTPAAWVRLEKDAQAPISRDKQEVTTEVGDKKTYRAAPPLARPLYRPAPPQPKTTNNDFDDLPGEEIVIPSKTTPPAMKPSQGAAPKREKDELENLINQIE
Kind of assay: Bocillin-FL competition binding via gel filtration, A. baumannii PBP1a. How it is done:
(§1) Affinity to A. baumannii PBP1a and PBP2 was assessed a competitive equilibrium binding assay using Bocillin-FL as the reporter molecule. Enzyme was pre-incubated with increasing concentrations of inhibitors, prior to addition of Bocillin and further incubation for 15 minutes. PBP bound with Bocillin-FL was separated by gel filtration using 96-well Zeba Spin size exclusion plates, and the fluorescence measured. The inhibitor affinity (reported as the EC50) was determined by plotting the fraction of PBP bound with Bocillin-FL at each inhibitor concentration against the inhibitor concentration, and fitting the data to the following equation:
(§2) [formula] • where y is the fraction bound at a given inhibitor concentration, ymin is the fraction bound when the enzyme is completely inactivated, ymax is the maximum (uninhibited) fraction bound, n is the Hill coefficient, and x is the inhibitor concentration.
In general terms: Size exclusion chromatography separates by hydrodynamic size, large species first.

The target in assay [3] is A. baumannii PBP2 (Acinetobacter baumannii, UniProt D0C8Z9). Kind of assay: Bocillin-FL competition binding via gel filtration, A. baumannii PBP2. How it is done: as §1, §2
Sequence of A. baumannii PBP2 (D0C8Z9 whole entry): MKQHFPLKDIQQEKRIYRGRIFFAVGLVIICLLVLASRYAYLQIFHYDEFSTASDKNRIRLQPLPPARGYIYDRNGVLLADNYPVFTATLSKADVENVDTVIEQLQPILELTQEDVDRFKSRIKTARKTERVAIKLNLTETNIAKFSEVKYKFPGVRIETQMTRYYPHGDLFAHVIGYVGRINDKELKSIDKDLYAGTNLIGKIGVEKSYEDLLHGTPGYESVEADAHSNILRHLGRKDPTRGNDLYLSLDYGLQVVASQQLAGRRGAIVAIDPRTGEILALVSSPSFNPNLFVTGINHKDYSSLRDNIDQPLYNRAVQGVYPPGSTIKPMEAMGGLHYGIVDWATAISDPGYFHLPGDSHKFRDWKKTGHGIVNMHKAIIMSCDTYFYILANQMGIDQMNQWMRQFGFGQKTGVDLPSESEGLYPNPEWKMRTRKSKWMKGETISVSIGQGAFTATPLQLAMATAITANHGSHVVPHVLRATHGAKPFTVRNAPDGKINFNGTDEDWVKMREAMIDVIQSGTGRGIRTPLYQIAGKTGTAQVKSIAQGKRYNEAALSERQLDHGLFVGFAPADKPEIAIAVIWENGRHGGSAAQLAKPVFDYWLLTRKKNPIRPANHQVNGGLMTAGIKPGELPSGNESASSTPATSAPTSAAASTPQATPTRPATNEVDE
Assay [4] has as its system B. pseudomallei Bp82. Kind of assay: microbe, parasite or virus in culture. The format is cell-based. The following applies: Burkholderia pseudomallei, BP82, read-out: Minimum inhibitory concentration, B. pseudomallei Bp82.
In assay [5] the test system is A. baumannii ATCC 17978. Kind of assay: microbe, parasite or virus in culture. The following applies: Acinetobacter baumannii, ATCC17978, read-out: Minimum inhibitory concentration (MIC), A. baumannii ATCC 17978. Type of assay: cell-based.
Assay [6] deals with A. baumannii ATCC 19606. The assay can be described thus: microbe, parasite or virus in culture. Type of assay: cell-based. The conditions noted are these: Acinetobacter baumannii, ATCC19606, read-out: Minimum inhibitory concentration (MIC), A. baumannii ATCC 19606.
Assay [7] concerns A. baumannii 1258916. Kind of assay: microbe, parasite or virus in culture. The format is cell-based, Acinetobacter baumannii. The following applies: Acinetobacter baumannii, 1258916, read-out: Minimum inhibitory concentration (MIC), A. baumannii 1258916.
For assay [8], the system named is A. baumannii CDC-0033. Kind of assay: microbe, parasite or virus in culture. The conditions noted are these: Acinetobacter baumannii, CDC0033, read-out: Minimum inhibitory concentration (MIC), A. baumannii CDC-0033. Type of assay: cell-based.
Assay [9] concerns A. baumannii CDC-0036. Kind of assay: microbe, parasite or virus in culture. Type of assay: cell-based. The following applies: Acinetobacter baumannii, CDC0036, read-out: Minimum inhibitory concentration (MIC), A. baumannii CDC-0036.
Assay [10] concerns A. baumannii CDC-0045. The assay can be described thus: microbe, parasite or virus in culture. The following applies: Acinetobacter baumannii, CDC0045, read-out: Minimum inhibitory concentration (MIC), A. baumannii CDC-0045. Type of assay: cell-based.
Assay [11] relates to B. thailandensis ATCC 700388. The assay can be described thus: microbe, parasite or virus in culture. Type of assay: cell-based. The conditions noted are these: Burkholderia thailandensis, ATCC700388, read-out: Minimum inhibitory concentration (MIC), B. thailandensis ATCC 700388.
The subject of assay [12] is B. humptydooensis ATCC BAA-2767. The assay can be described thus: microbe, parasite or virus in culture. Type of assay: cell-based. The conditions noted are these: Burkholderia humptydooensis, ATCCBAA2767, read-out: Minimum inhibitory concentration (MIC), B. humptydooensis ATCC BAA-2767.
Setting [13] is: competition binding assay using Bocillin-FL via gel filtration, read-out: A. baumannii PBP1a Potency.

Converted amounts (≈) assume the structure as drawn. Where two headings read alike, the source gives them in different places.

T1 sequence (G3XD46 whole entry): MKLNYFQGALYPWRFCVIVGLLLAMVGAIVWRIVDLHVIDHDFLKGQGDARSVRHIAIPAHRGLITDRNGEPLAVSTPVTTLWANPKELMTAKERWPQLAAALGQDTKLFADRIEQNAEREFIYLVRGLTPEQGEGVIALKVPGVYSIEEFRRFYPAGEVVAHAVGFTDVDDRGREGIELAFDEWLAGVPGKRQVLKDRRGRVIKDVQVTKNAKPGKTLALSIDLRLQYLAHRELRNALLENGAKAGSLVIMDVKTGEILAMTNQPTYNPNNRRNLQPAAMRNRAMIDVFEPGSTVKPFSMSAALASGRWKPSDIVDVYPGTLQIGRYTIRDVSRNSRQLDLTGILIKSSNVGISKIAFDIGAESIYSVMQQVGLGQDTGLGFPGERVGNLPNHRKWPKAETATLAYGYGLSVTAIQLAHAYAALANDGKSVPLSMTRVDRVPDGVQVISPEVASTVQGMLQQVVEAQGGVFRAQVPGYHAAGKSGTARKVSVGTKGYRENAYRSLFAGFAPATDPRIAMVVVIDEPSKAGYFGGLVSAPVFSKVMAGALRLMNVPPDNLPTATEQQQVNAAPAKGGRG

On to `O=C(O)c1c(F)ccc2c1OB(O)[C@@H](NC(=O)[C@H](NC(=O)N1CCN(C3CCN(C(=O)Nc4cc(O)c(O)c(Cl)c4)CC3)C1=O)c1ccc(P(=O)(O)O)cc1)C2` (single isomer, unassigned) [Example 501], for which the IC50 in assay [1] is below 10 µM. For the same compound, the EC50 in assay [2] (setting [13]) and in assay [3] was below 10 µM throughout. The MIC in [4] was 2 to 4 µg/mL (≈ 2.44 to 4.88 µM); in assay [5], below 1 µg/mL; in [6], below 1 µg/mL; in [7], 2 to 4 µg/mL (≈ 2.44 to 4.88 µM); in assay [8], 2 to 4 µg/mL (≈ 2.44 to 4.88 µM); in [9], 2 to 4 µg/mL (≈ 2.44 to 4.88 µM). Besides, the MIC in assay [10], in [11] and in assay [12] was below 1 µg/mL in each case.
Take `O=C(O)c1c(F)ccc2c1OB(O)[C@@H](NC(=O)C(NC(=O)N1CCN(C3CCN(Cc4ccc(O)cc4)CC3)C1=O)c1cc(F)c(O)c(O)c1Cl)C2` (single isomer, unassigned) [Example 609]: the EC50 is below 10 µM in assay [2] (setting [13]) and 10 to 50 µM in assay [3]. Also, the MIC in [4], in [11] and in assay [12] was below 1 µg/mL in each case.
`O=C(O)c1c(F)ccc2c1OB(O)[C@@H](NC(=O)C(NC(=O)N1CCN(C3CCN(Cc4ccc(O)c(F)c4)CC3)C1=O)c1cc(F)c(O)c(O)c1Cl)C2` (single isomer, unassigned) [Example 610]: the EC50 in assay [2] (setting [13]) is below 10 µM; in assay [3], 10 to 50 µM. Moreover, the MIC in [4], in assay [11] and in assay [12] was below 1 µg/mL each time.
For `O=C(O)c1c(F)ccc2c1OB(O)[C@@H](NC(=O)C(NC(=O)N1CCN(C3CCN(Cc4cc(O)cc(O)c4)CC3)C1=O)c1cc(F)c(O)c(O)c1Cl)C2` (single isomer, unassigned) [Example 612], the EC50 was below 10 µM in assay [2] (setting [13]) and 10 to 50 µM in [3]. Moreover, the MIC in [4], in [11] and in assay [12] was below 1 µg/mL each time.
Consider `O=C(O)c1c(F)ccc2c1OB(O)[C@@H](NC(=O)C(NC(=O)N1CCN(C3CCN(Cc4cccc(O)c4)CC3)C1=O)c1cc(F)c(O)c(O)c1Cl)C2` (stereo partly drawn) [Example 605, (3R)-3-(2-(2-chloro-5-fluoro-3,4-dihydroxyphenyl)-2-(3-(1-(3-hydroxybenzyl)piperidin-4-yl)-2-oxoimidazolidine-1-carboxamido)acetamido)-7-fluoro-2-hydroxy-3,4-dihydro-2H-benzo[e][1,2]oxaborinine-8-carboxylic acid], for which the EC50 was below 10 µM in assay [2] and 10 to 50 µM in [3]. In addition, the MIC in [4], in assay [11] and in [12] was below 1 µg/mL each time.
